The values that follow are results of earlier work, collected in article PMC5962642, “Dynamic imaging of adaptive stress response pathway activation for prediction of drug induced liver injury” (Archives of Toxicology, 2018).

Each structure is given as a SMILES string.

For series [1] the following is noted: C-max obtained from FDA or literature; ref per compound (FDA, Dailymed, Xu, O’Brien, Khetani, Regenthal, Gustafsson, Dawson, Ogutu, Patel, Schmidt, Ravic, Keisu, Hu, Wagner); cited from earlier work.
For series [2] the following is noted: ref Chen et al. [2016], cited from earlier work; for DILI con. (DILI-concern labeling): FDA DILI labeling; for Hepa. (hepatotoxicity class): FDA labeling in eight classes of hepatotoxicity.
The conditions of series [3]: ref livertox.nih.gov database; cited from earlier work.

Turning to `CN(C)c1nc(N(C)C)nc(N(C)C)n1` [Altretamine], the Cmax (in general, the peak of the concentration-time curve) in series [1] is 3760 nM. Further, the “DILI con. (DILI-concern labeling)” value in series [2] is “Amb.-DC”.

For the molecule `CC1(C)S[C@@H]2[C@H](NC(=O)[C@H](N)c3ccc(O)cc3)C(=O)N2[C@H]1C(=O)O` [Amoxicillin], in series [1], the Cmax was 22300 nM. Besides, in series [2], the “DILI con. (DILI-concern labeling)” value is “Less-DC” and the “Hepa. (hepatotoxicity class)” value was 5.

Regarding `COc1ccccc1Oc1c(NS(=O)(=O)c2ccc(C(C)(C)C)cc2)nc(-c2ncccn2)nc1OCCO` [Bosentan], in series [2], the “DILI con. (DILI-concern labeling)” value is “Most-DC” and the “Hepa. (hepatotoxicity class)” value is 7. Moreover, in series [3], the “Metab (metabolic potential)” value is on record as “YES”.

With `O=C1CC2(CCCC2)CC(=O)N1CCCCN1CCN(c2ncccn2)CC1` [Buspirone], in series [1], the Cmax is 16 nM. For the same molecule, the “DILI con. (DILI-concern labeling)” value in series [2] is given as “Amb.-DC”.

`CS(=O)(=O)OCCCCOS(C)(=O)=O` [Busulfan]: the Cmax in series [1] was 277 nM. In series [2], the “DILI con. (DILI-concern labeling)” value is listed as “Most-DC” and the “Hepa. (hepatotoxicity class)” value was 8.

For `C[C@H](CS)C(=O)N1CCC[C@H]1C(=O)O` [Captopril], the Cmax in series [1] is 8880 nM. The “Hepa. (hepatotoxicity class)” value in series [2] is on record as 7.

Consider `NC(=O)N1c2ccccc2C=Cc2ccccc21` [Carbamazepine], for which the Cmax in series [1] was 50800 nM. For the same molecule, in series [2], the “DILI con. (DILI-concern labeling)” value was “Most-DC” and the “Hepa. (hepatotoxicity class)” value is listed as 7.

With `O=C(N[C@H](CO)[C@H](O)c1ccc([N+](=O)[O-])cc1)C(Cl)Cl` [Chloramphenicol], in series [1], the Cmax is 46400 nM.

As to `CCCNC(=O)NS(=O)(=O)c1ccc(Cl)cc1` [Chlorpropamide], the Cmax in series [1] is 130000 nM. In series [2], the “DILI con. (DILI-concern labeling)” value was “Less-DC” and the “Hepa. (hepatotoxicity class)” value is given as 2.

Take `Clc1ccccc1C(c1ccccc1)(c1ccccc1)n1ccnc1` [Clotrimazole]: in series [1], the Cmax is 87 nM. Besides, in series [2], the “DILI con. (DILI-concern labeling)” value is “Less-DC” and the “Hepa. (hepatotoxicity class)” value is given as 3.

Turning to `CN(C)/N=N/c1[nH]cnc1C(N)=O` [Dacarbazine], the Cmax in series [1] is 20600 nM. Further, in series [2], the “DILI con. (DILI-concern labeling)” value is recorded as “Most-DC” and the “Hepa. (hepatotoxicity class)” value is recorded as 6.

For the molecule `C#C[C@]1(O)CC[C@H]2[C@@H]3CCC4=Cc5oncc5C[C@]4(C)[C@H]3CC[C@@]21C` [Danazol], the Cmax in series [1] is 109 nM. For the same molecule, the “Hepa. (hepatotoxicity class)” value in series [2] is 8.

Take `C[C@@H]1C[C@H]2[C@@H]3CCC4=CC(=O)C=C[C@]4(C)[C@@]3(F)[C@@H](O)C[C@]2(C)[C@@]1(O)C(=O)CO` [Dexamethasone]: the Cmax in series [1] is 224 nM. For the same molecule, in series [2], the “DILI con. (DILI-concern labeling)” value is “Amb.-DC” and the “Hepa. (hepatotoxicity class)” value was 3.

As for `O=c1[nH]cnc2c1ncn2[C@H]1CC[C@@H](CO)O1` [Didanosine], in series [1], the Cmax is 9830 nM. Besides, the “Hepa. (hepatotoxicity class)” value in series [2] is given as 8.

On to `C[C@H]1O[C@@H](O[C@H]2[C@@H](O)C[C@H](O[C@H]3[C@@H](O)C[C@H](O[C@H]4CC[C@@]5(C)[C@H](CC[C@@H]6[C@@H]5C[C@@H](O)[C@]5(C)[C@@H](C7=CC(=O)OC7)CC[C@]65O)C4)O[C@@H]3C)O[C@@H]2C)C[C@H](O)[C@@H]1O` [Digoxin], for which the Cmax in series [1] is 3 nM. The “Hepa. (hepatotoxicity class)” value in series [2] is 1.

`COc1ccc([C@@H]2Sc3ccccc3N(CCN(C)C)C(=O)[C@@H]2OC(C)=O)cc1` [Diltiazem]: in series [1], the Cmax was 356 nM.

Regarding `CCN(CC)C(=S)SSC(=S)N(CC)CC` [Disulfiram], the Cmax in series [1] was 5400 nM.

As to `CNC[C@H](O)c1ccc(O)c(O)c1` [Epinephrine], the Cmax in series [1] was 2 nM. Besides, in series [2], the “DILI con. (DILI-concern labeling)” value is “No-DC” and the “Hepa. (hepatotoxicity class)” value was 1.

Regarding `CC[C@H]1OC(=O)[C@H](C)[C@@H](O[C@H]2C[C@@](C)(OC)[C@@H](O)[C@H](C)O2)[C@H](C)[C@@H](O[C@@H]2O[C@H](C)C[C@H](N(C)C)[C@H]2O)[C@](C)(O)C[C@@H](C)C(=O)[C@H](C)[C@@H](O)[C@]1(C)O` [Erythromycin], the Cmax in series [1] is 11000 nM.

For the molecule `CC[C@@H](CO)NCCN[C@@H](CC)CO` [Ethambutol], the Cmax in series [1] was 24500 nM. For the same molecule, in series [2], the “DILI con. (DILI-concern labeling)” value is listed as “Most-DC” and the “Hepa. (hepatotoxicity class)” value is 8.

For `CCc1cccc2c3c([nH]c12)C(CC)(CC(=O)O)OCC3` (centres unmarked) [Etodolac], in series [1], the Cmax is 68500 nM. Besides, in series [2], the “DILI con. (DILI-concern labeling)” value is recorded as “Most-DC” and the “Hepa. (hepatotoxicity class)” value is given as 8.

Turning to `CC(C)OC(=O)C(C)(C)Oc1ccc(C(=O)c2ccc(Cl)cc2)cc1` [Fenofibrate], in series [1], the Cmax was 4100 nM. Besides, the “Hepa. (hepatotoxicity class)” value in series [2] is on record as 3.

Regarding `O=c1[nH]c(=O)n([C@@H]2O[C@H](CO)[C@@H](O)[C@@H]2F)cc1I` [Fialuridine], in series [1], the Cmax was 1000 nM. In addition, in series [2], the “DILI con. (DILI-concern labeling)” value is “Most-DC” and the “Hepa. (hepatotoxicity class)” value is 8.

Consider `CNCCC(Oc1ccc(C(F)(F)F)cc1)c1ccccc1` (centres unmarked) [Fluoxetine], for which the “Hepa. (hepatotoxicity class)” value in series [2] was 3.

For `Nc1nc2ncc(CNc3ccc(C(=O)N[C@@H](CCC(=O)O)C(=O)O)cc3)nc2c(=O)[nH]1` [Folic acid], the Cmax in series [1] is 43 nM. In addition, the “Hepa. (hepatotoxicity class)” value in series [2] is on record as 1.

For `Nc1nc(O)c2ncn(COC(CO)CO)c2n1` [Ganciclovir], the Cmax in series [1] is 4620 nM. For the same molecule, the “Hepa. (hepatotoxicity class)” value in series [2] is 7.

Regarding `CCC1=C(C)CN(C(=O)NCCc2ccc(S(=O)(=O)NC(=O)N[C@H]3CC[C@H](C)CC3)cc2)C1=O` [Glimepiride], the Cmax in series [1] is 1120 nM. Further, in series [2], the “DILI con. (DILI-concern labeling)” value is listed as “Less-DC” and the “Hepa. (hepatotoxicity class)” value is 7.

In the case of `OCCOCCN1CCN(C(c2ccccc2)c2ccc(Cl)cc2)CC1` (centres unmarked) [Hydroxyzine], the Cmax in series [1] was 270 nM. Moreover, in series [2], the “DILI con. (DILI-concern labeling)” value is recorded as “No-DC” and the “Hepa. (hepatotoxicity class)” value is recorded as 1.

Take `COc1ccc2c(c1)c(CC(=O)O)c(C)n2C(=O)c1ccc(Cl)cc1` [Indomethacin]: the Cmax in series [1] was 5590 nM.

For the molecule `CC(C)NCC(O)c1ccc(O)c(O)c1` (centres unmarked) [Isoproterenol], the Cmax in series [1] was 2020 nM. Further, in series [2], the “DILI con. (DILI-concern labeling)” value is reported as “No-DC” and the “Hepa. (hepatotoxicity class)” value is 1.

With `O=C(c1ccccc1)c1ccc2n1CCC2C(=O)O` (centres unmarked) [Ketorolac], the maximum concentration (Cmax) in series [1] was 3530 nM. In addition, in series [2], the “DILI con. (DILI-concern labeling)” value is “Less-DC” and the “Hepa. (hepatotoxicity class)” value is given as 3.

In the case of `CC(CCc1ccccc1)NCC(O)c1ccc(O)c(C(N)=O)c1` (centres unmarked) [Labetalol], the Cmax in series [1] is 2680 nM. In series [2], the “DILI con. (DILI-concern labeling)” value is reported as “Most-DC” and the “Hepa. (hepatotoxicity class)” value is recorded as 8.

As for `CNCCCC12CCC(c3ccccc31)c1ccccc12` [Maprotiline], the Cmax in series [1] is 180 nM. Also, in series [2], the “DILI con. (DILI-concern labeling)” value is on record as “Amb.-DC” and the “Hepa. (hepatotoxicity class)” value is 5.

`COC(=O)Nc1nc2ccc(C(=O)c3ccccc3)cc2[nH]1` [Mebendazole]: the Cmax in series [1] is 130 nM. In addition, the “Hepa. (hepatotoxicity class)” value in series [2] is on record as 3.

For `Cc1cccc(CN2CCN(C(c3ccccc3)c3ccc(Cl)cc3)CC2)c1` (centres unmarked) [Meclizine], in series [2], the “DILI con. (DILI-concern labeling)” value was “No-DC” and the “Hepa. (hepatotoxicity class)” value is 1.

In the case of `CN(C)C(=N)N=C(N)N` [Metformin], in series [2], the “DILI con. (DILI-concern labeling)” value is recorded as “Less-DC” and the “Hepa. (hepatotoxicity class)” value is given as 1. The “Metab (metabolic potential)” value in series [3] was “YES”.

Regarding `Cn1cc[nH]c1=S` [Methimazole], in series [1], the Cmax was 2620 nM.

As for `CN(Cc1cnc2nc(N)nc(N)c2n1)c1ccc(C(=O)N[C@@H](CCC(=O)O)C(=O)O)cc1` [Methotrexate], the Cmax in series [1] was 770 nM. In series [2], the “DILI con. (DILI-concern labeling)” value was “Most-DC” and the “Hepa. (hepatotoxicity class)” value is reported as 3.

Consider `COCCc1ccc(OCC(O)CNC(C)C)cc1` (centres unmarked) [Metoprolol], for which the Cmax in series [1] is 560 nM.

Regarding `CC(=O)Oc1cc(C(C)C)c(OCCN(C)C)cc1C` [Moxisylyte], the Cmax in series [1] was 160 nM. Moreover, the “Hepa. (hepatotoxicity class)” value in series [2] was 8.

For `CC1COc2c(N3CCN(C)CC3)c(F)cc3c(=O)c(C(=O)O)cn1c23` (centres unmarked) [Ofloxacin], the Cmax in series [1] was 9960 nM. Further, the “Hepa. (hepatotoxicity class)” value in series [2] is given as 3.

As for `C1CCC(C(CC2CCCCN2)C2CCCCC2)CC1` (centres unmarked) [Perhexiline], in series [2], the “DILI con. (DILI-concern labeling)” value is reported as “Most-DC” and the “Hepa. (hepatotoxicity class)” value is recorded as 8.

`C[C@]12C=CC(=O)C=C1CC[C@@H]1[C@@H]2[C@@H](O)C[C@@]2(C)[C@H]1CC[C@]2(O)C(=O)CO` [Prednisolone]: in series [1], the Cmax is 680 nM. For the same molecule, in series [2], the “DILI con. (DILI-concern labeling)” value is listed as “Less-DC” and the “Hepa. (hepatotoxicity class)” value is given as 3.

`CC(C)NCC(O)COc1cccc2ccccc12` (centres unmarked) [Propranolol]: in series [3], the “Metab (metabolic potential)” value is “YES”.

Regarding `CCCc1cc(=O)[nH]c(=S)[nH]1` [Propylthiouracil], the Cmax in series [1] is 9100 nM. The “Hepa. (hepatotoxicity class)” value in series [2] is listed as 8.

Turning to `CNC(=C[N+](=O)[O-])NCCSCc1ccc(CN(C)C)o1` [Ranitidine], the Cmax in series [1] was 1790 nM. In series [2], the “DILI con. (DILI-concern labeling)” value is listed as “Less-DC” and the “Hepa. (hepatotoxicity class)” value is listed as 5.

For `CC/C(=C(\c1ccccc1)c1ccc(OCCN(C)C)cc1)c1ccccc1` [Tamoxifen], the “Metab (metabolic potential)” value in series [3] is “YES”.

As to `CN(C/C=C/C#CC(C)(C)C)Cc1cccc2ccccc12` [Terbinafine], the Cmax in series [1] is 4000 nM. Further, in series [2], the “DILI con. (DILI-concern labeling)” value is “Most-DC” and the “Hepa. (hepatotoxicity class)” value is 8.

Consider `Clc1ccccc1CN1CCc2sccc2C1` [Ticlopidine], for which the Cmax in series [1] is 8070 nM.

For the molecule `CCCCNC(=O)NS(=O)(=O)c1ccc(C)cc1` [Tolbutamide], in series [1], the Cmax was 233000 nM.

Take `CC(=O)CC(c1ccccc1)c1c(O)c2ccccc2oc1=O` (centres unmarked) [Warfarin]: the Cmax in series [1] was 4860 nM.

For the molecule `CCOC(=O)CN[C@@H](C(=O)N1CC[C@H]1C(=O)NCc1ccc(/C(N)=N\O)cc1)C1CCCCC1` [Ximelagatran], the Cmax in series [1] is 300 nM.
